Measured values as given in patent US10300071B2, “Compositions and methods for inhibition of mycobacteria” (priority 2014, dated 2019).
Values after ≈ are worked out from the molar mass of the structure shown. Where two headings read alike, the source gives them in different places.

Key:
[1] = Pharmacokinetic studies in mice, plasma concentration after gavage (LC/MS); settings: for peak plasma concentration, 30 minutes after gavage / peak plasma concentration, 90 minutes after gavage: 100 mg/kg gavage, PEG or canola oil; for Plasma conc. 24 Hrs. after 1st dose / Plasma conc. 24 Hrs. after last dose: oral, 1 dose/day x 4 days, NZ-331 200 mg/kg, NZ-332 and NZ-369 100 mg/kg; for peak plasma concentration (FIG. 6A): two doses 200 mg/kg 8 h apart, approx. 12 hours after first dose, 4 hours after second
Mtb AccD6 = Mtb AccD6 (Mycobacterium tuberculosis, UniProt P9WQH5); assay: biochemical; format: biochemical; settings: for IC50: 300 μM malonyl-CoA, inhibitor 10 μM to 2000 μM
Chain of Mtb AccD6 (P9WQH5 whole entry, looked up): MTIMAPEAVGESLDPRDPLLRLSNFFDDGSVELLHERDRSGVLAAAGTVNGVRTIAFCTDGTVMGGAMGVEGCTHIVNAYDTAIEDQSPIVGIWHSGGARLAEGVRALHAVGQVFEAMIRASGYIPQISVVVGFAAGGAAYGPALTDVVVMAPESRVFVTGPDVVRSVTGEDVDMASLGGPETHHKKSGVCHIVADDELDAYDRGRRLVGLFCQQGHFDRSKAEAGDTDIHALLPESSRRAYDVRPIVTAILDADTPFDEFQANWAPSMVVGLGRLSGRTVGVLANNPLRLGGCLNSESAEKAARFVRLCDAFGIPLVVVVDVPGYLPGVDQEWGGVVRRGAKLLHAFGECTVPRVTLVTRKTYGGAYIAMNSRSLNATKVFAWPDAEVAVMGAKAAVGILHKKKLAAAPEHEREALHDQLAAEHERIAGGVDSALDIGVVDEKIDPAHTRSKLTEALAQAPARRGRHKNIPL

Mtb strain mc^2-7000 = assay: microbe, parasite or virus in culture; format: cell-based, Mycobacterium tuberculosis; settings: 6 days incubation at 37° C., resazurin, read on the 7th day
[2] = Mycobacterium tuberculosis, 144 h, read-out: MIC

## CC(C)NC(=O)Nc1ccc(Oc2nc3ccc(F)cc3s2)cc1 [NZ-332, 1-{4-[(6-fluoro-1,3-benzothiazol-2-yl)oxy]phenyl}-3-(propan-2-yl)urea]
Human fibroblast
  concentrations at which not toxic, human fibroblast cytotoxicity: ≥ 100 µM
[1]
  peak plasma concentration, 30 minutes after gavage: approximately 9 μL/mg
  peak plasma concentration, 90 minutes after gavage: 13
[1]; canola oil
  Plasma conc. 24 Hrs. after 1st dose: 2.2 (±0.6) μg/ml
  Plasma conc. 24 Hrs. after last dose: 1.8 (±0.2) μg/ml
[1]; canola oil, gavage
  peak plasma concentration (FIG. 6A): approximately 34 μL/mg
Mtb AccD6; read-out: IC50
  IC50: 650 nM
S. cerevisiae
  concentrations at which not toxic, s. cerevisiae cytotoxicity: ≥ 100 µM
Mtb strain mc^2-7000; [2]
  MIC: 0.8 µM (≈ 0.276 µg/mL)

## CC(C)NC(=O)Nc1ccc(Oc2nc3ccc(Cl)cc3s2)cc1 [NZ-331, 1-{4-[(6-chloro-1,3-benzothiazol-2-yl)oxy]phenyl}-3-(propan-2-yl)urea]
Human fibroblast
  concentrations at which not toxic, human fibroblast cytotoxicity: ≥ 100 µM
[1]
  peak plasma concentration, 30 minutes after gavage: approximately 6 μL/mg
  peak plasma concentration, 90 minutes after gavage: 9
[1]; canola oil
  Plasma conc. 24 Hrs. after 1st dose: 17.7 (±2.7) μg/ml
  Plasma conc. 24 Hrs. after last dose: 27.1 (±13.7) μg/ml
[1]; canola oil, gavage
  peak plasma concentration (FIG. 6A): approximately 23 μL/mg
[1]; two doses 200 mg/kg 8 hours apart, canola oil, 24 hours after gavage
  peak plasma concentration (FIG. 11), 24 hours: 34.5
[1]; two doses 200 mg/kg, canola oil, gavage, approx. 24 hours after first dose, 16 hours after second
  corrected peak plasma concentration (FIG. 6B): approximately 138 μL/mg
Mtb AccD6; read-out: IC50
  IC50: 800 nM
S. cerevisiae
  concentrations at which not toxic, s. cerevisiae cytotoxicity: ≥ 100 µM
Mtb strain mc^2-7000; [2]
  MIC: 0.8 µM (≈ 0.289 µg/mL)

## O=C(O)Cn1ccc(Oc2nc3ccc(Cl)cc3s2)cc1=O [NZ-397, 2-{4-[(6-chloro-1,3-benzothiazol-2-yl)oxy]-2-oxo-1,2-dihydropyridin-1-yl}acetic acid]
Human fibroblast
  concentrations at which not toxic, human fibroblast cytotoxicity: ≥ 100 µM
Mtb AccD6; read-out: IC50
  IC50: 450 nM
S. cerevisiae
  concentrations at which not toxic, s. cerevisiae cytotoxicity: ≥ 100 µM
Mtb strain mc^2-7000
  MIC: Not Active

## CC(C)NC(=O)Nc1ccc(Oc2nc3ccc(Cl)cc3s2)c[n+]1[O-] [NZ-391, 1-{5-[(6-chloro-1,3-benzothiazol-2-yl)oxy]-1-oxo-1λ^5-pyridin-2-yl}-3-(propan-2-yl)urea]
Human fibroblast
  concentrations at which not toxic, human fibroblast cytotoxicity: ≥ 100 µM
Mtb AccD6
  IC50: Not Active
S. cerevisiae
  concentrations at which not toxic, s. cerevisiae cytotoxicity: ≥ 100 µM
Mtb strain mc^2-7000
  MIC: Not Active

## CONC(=O)Cc1ccc(Oc2cnc3cc(Cl)ccc3n2)cc1 [NZ-301, 2-{4-[(6-chloroquinoxalin-2-yl)oxy]phenyl}-N-methoxyacetamide]
Human fibroblast
  concentrations at which not toxic, human fibroblast cytotoxicity: ≥ 100 µM
Mtb AccD6; read-out: IC50
  IC50: 265 nM
S. cerevisiae
  concentrations at which not toxic, s. cerevisiae cytotoxicity: ≥ 100 µM
Mtb strain mc^2-7000; [2]
  MIC: 12 µM (≈ 4.13 µg/mL)

## CC(C)NC(=O)Nc1ccc(Oc2nc3cc(F)c(F)cc3s2)cc1 [NZ-382, 1-{4-[(5,6-difluoro-1,3-benzothiazol-2-yl)oxy]phenyl}-3-(propan-2-yl)urea]
Human fibroblast
  concentrations at which not toxic, human fibroblast cytotoxicity: ≥ 100 µM
Mtb AccD6; read-out: IC50
  IC50: 270 to 350 nM
S. cerevisiae
  concentrations at which not toxic, s. cerevisiae cytotoxicity: 50 to 100 µM
Mtb strain mc^2-7000
  MIC: Not Active

## CONC(=O)Cc1ccc(Oc2nc3ccc(Cl)cc3s2)cc1 [NZ-293, 2-{4-[(6-chloro-1,3-benzothiazol-2-yl)oxy]phenyl}-N-methoxyacetamide]
Human fibroblast
  concentrations at which not toxic, human fibroblast cytotoxicity: ≥ 100 µM
Mtb AccD6; read-out: IC50
  IC50: 1000 nM
S. cerevisiae
  concentrations at which not toxic, s. cerevisiae cytotoxicity: ≥ 100 µM
Mtb strain mc^2-7000; [2]
  MIC: 3 µM (≈ 1.05 µg/mL)

## CONC(=O)C(C)c1ccc(Oc2nc3ccc(Cl)cc3s2)cc1 (racemic) [NZ-313, 2-{4-[(6-chloro-1,3-benzothiazol-2-yl)oxy]phenyl}-N-methoxypropanamide]
Human fibroblast
  concentrations at which not toxic, human fibroblast cytotoxicity: ≥ 100 µM
[1]; single dose 200 mg/kg, PEG, gavage, 90 minutes after gavage
  peak plasma concentration (FIG. 8): 1
[1]; two doses 100 mg/kg 4 hours apart, canola oil, gavage, 30 minutes after gavage
  peak plasma concentration (FIG. 7): approximately 0.69 μL/mg
Mtb AccD6; read-out: IC50
  IC50: 320 nM
S. cerevisiae
  concentrations at which not toxic, s. cerevisiae cytotoxicity: ≥ 100 µM
Mtb strain mc^2-7000; [2]
  MIC: 0.38 µM (≈ 0.138 µg/mL)

## O=C(O)Cc1ccc(Oc2nc3cc(F)c(F)cc3s2)cc1 [NZ-399, 2-{4-[(5,6-difluoro-1,3-benzothiazol-2-yl)oxy]phenyl}acetic acid]
Human fibroblast
  concentrations at which not toxic, human fibroblast cytotoxicity: ≥ 100 µM
Mtb AccD6; read-out: IC50
  IC50: 180 nM
S. cerevisiae
  concentrations at which not toxic, s. cerevisiae cytotoxicity: ≥ 100 µM
Mtb strain mc^2-7000; [2]
  MIC: 1.36 µM (≈ 0.437 µg/mL)

## O=C(O)Cc1ccc(Oc2nc3ccc(Cl)cc3s2)cc1 [NZ-287, 2-{4-[(6-chloro-1,3-benzothiazol-2-yl)oxy]phenyl}acetic acid]
Human fibroblast
  concentrations at which not toxic, human fibroblast cytotoxicity: ≥ 100 µM
Mtb AccD6; read-out: IC50
  IC50: 520 nM
S. cerevisiae
  concentrations at which not toxic, s. cerevisiae cytotoxicity: ≥ 100 µM
Mtb strain mc^2-7000; [2]
  MIC: 12 µM (≈ 3.84 µg/mL)

## CNC(=O)Cc1ccc(Oc2nc3ccc(F)cc3s2)cc1O [NZ-395, 2-{4-[(6-fluoro-1,3-benzothiazol-2-yl)oxy]-2-hydroxyphenyl}-N-methylacetamide]
Human fibroblast
  concentrations at which not toxic, human fibroblast cytotoxicity: ≥ 100 µM
Mtb AccD6; read-out: IC50
  IC50: 160 nM
S. cerevisiae
  concentrations at which not toxic, s. cerevisiae cytotoxicity: ≥ 100 µM
Mtb strain mc^2-7000; [2]
  MIC: 0.6 to 0.9 µM (≈ 0.199 to 0.299 µg/mL)

## CC(C)NC(=O)Nc1ccc(Oc2nc3cc(F)ccc3s2)cc1 [NZ-373, 1-{4-[(5-fluoro-1,3-benzothiazol-2-yl)oxy]phenyl}-3-(propan-2-yl)urea]
Human fibroblast
  concentrations at which not toxic, human fibroblast cytotoxicity: ≥ 100 µM
Mtb AccD6; read-out: IC50
  IC50: 1660 nM
S. cerevisiae
  concentrations at which not toxic, s. cerevisiae cytotoxicity: ≥ 100 µM
Mtb strain mc^2-7000
  MIC: Not Active

## CC(C(=O)NC(CO)CO)c1ccc(Oc2nc3ccc(Cl)cc3s2)cc1 (centres unmarked) [NZ-371, 2-{4-[(6-chloro-1,3-benzothiazol-2-yl)oxy]phenyl}-N-(1,3-dihydroxypropan-2-yl)propanamide]
Human fibroblast
  concentrations at which not toxic, human fibroblast cytotoxicity: ≥ 100 µM
Mtb AccD6; read-out: IC50
  IC50: 860 nM
S. cerevisiae
  concentrations at which not toxic, s. cerevisiae cytotoxicity: ≥ 100 µM
Mtb strain mc^2-7000; [2]
  MIC: 20 µM (≈ 8.13 µg/mL)

## CNC(=O)C(C)c1ccc(Oc2nc3ccc(F)cc3s2)cc1 (centres unmarked) [NZ-386, 2-{4-[(6-fluoro-1,3-benzothiazol-2-yl)oxy]phenyl}-N-methylpropanamide]
Human fibroblast
  concentrations at which not toxic, human fibroblast cytotoxicity: ≥ 100 µM
Mtb AccD6; read-out: IC50
  IC50: 620 nM
S. cerevisiae
  concentrations at which not toxic, s. cerevisiae cytotoxicity: ≥ 100 µM
Mtb strain mc^2-7000; [2]
  MIC: 1.1 to 2.1 µM (≈ 0.363 to 0.694 µg/mL)

## CONC(=O)[C@@H](C)Oc1ccc(Oc2cnc3cc(Cl)ccc3n2)cc1 [NZ-295, (2R)-2-{4-[(6-chloroquinoxalin-2-yl)oxy]phenoxy}-N-methoxypropanamide]
Human fibroblast
  concentrations at which not toxic, human fibroblast cytotoxicity: ≥ 100 µM
Mtb AccD6; read-out: IC50
  IC50: 930 nM
S. cerevisiae
  concentrations at which not toxic, s. cerevisiae cytotoxicity: ≥ 100 µM
Mtb strain mc^2-7000; [2]
  MIC: 4.5 µM (≈ 1.68 µg/mL)

## CC(C(=O)N1CCNCC1)c1ccc(Oc2nc3ccc(Cl)cc3s2)cc1 (centres unmarked) [NZ-364, 2-{4-[(6-chloro-1,3-benzothiazol-2-yl)oxy]phenyl}-1-(piperazin-1-yl)propan-1-one]
Human fibroblast
  concentrations at which not toxic, human fibroblast cytotoxicity: ≥ 100 µM
Mtb AccD6; read-out: inhibition at 20 uM
  inhibition at 20 µM: 20%
S. cerevisiae
  concentrations at which not toxic, s. cerevisiae cytotoxicity: ≥ 100 µM
Mtb strain mc^2-7000; [2]
  MIC: 1.34 µM (≈ 0.539 µg/mL)

## COC(=O)C(C)c1ccc(Oc2nc3ccc(F)cc3s2)cc1 (centres unmarked) [NZ-328, methyl 2-{4-[(6-fluoro-1,3-benzothiazol-2-yl)oxy]phenyl}propanoate]
Human fibroblast
  concentrations at which not toxic, human fibroblast cytotoxicity: ≥ 100 µM
Mtb AccD6; read-out: IC50
  IC50: 10000 nM
S. cerevisiae
  concentrations at which not toxic, s. cerevisiae cytotoxicity: ≥ 100 µM
Mtb strain mc^2-7000; [2]
  MIC: 12 µM (≈ 3.98 µg/mL)

## CC(C)NC(=O)COc1ccc(Oc2cnc3cc(Cl)ccc3n2)cc1 [NZ-307, 2-{4-[(6-chloroquinoxalin-2-yl)oxy]phenoxy}-N-(propan-2-yl)acetamide]
Human fibroblast
  concentrations at which not toxic, human fibroblast cytotoxicity: ≥ 100 µM
Mtb AccD6; read-out: IC50
  IC50: 2500 nM
S. cerevisiae
  concentrations at which not toxic, s. cerevisiae cytotoxicity: ≥ 100 µM
Mtb strain mc^2-7000; [2]
  MIC: 3 µM (≈ 1.12 µg/mL)

## CON(C)C(=O)COc1ccc(Oc2cnc3cc(Cl)ccc3n2)cc1 [NZ-290, 2-{4-[(6-chloroquinoxalin-2-yl)oxy]phenoxy}-N-methoxy-N-methylacetamide]
Human fibroblast
  concentrations at which not toxic, human fibroblast cytotoxicity: ≥ 100 µM
Mtb AccD6; read-out: IC50
  IC50: 2500 nM
S. cerevisiae
  concentrations at which not toxic, s. cerevisiae cytotoxicity: ≥ 100 µM
Mtb strain mc^2-7000; [2]
  MIC: 1.5 µM (≈ 0.561 µg/mL)

## CONC(=O)COc1ccc(Oc2cnc3cc(Cl)ccc3n2)cc1 [NZ-274, 2-{4-[(6-chloroquinoxalin-2-yl)oxy]phenoxy}-N-methoxyacetamide]
Human fibroblast
  concentrations at which not toxic, human fibroblast cytotoxicity: ≥ 100 µM
Mtb AccD6; read-out: IC50
  IC50: 3700 nM
S. cerevisiae
  concentrations at which not toxic, s. cerevisiae cytotoxicity: ≥ 100 µM
Mtb strain mc^2-7000; [2]
  MIC: 0.173 µM (≈ 0.0622 µg/mL)

## O=C(O)Cc1ccc(Oc2nc3ccc(F)cc3s2)cc1 [NZ-299, 2-{4-[(6-fluoro-1,3-benzothiazol-2-yl)oxy]phenyl}acetic acid]
Human fibroblast
  concentrations at which not toxic, human fibroblast cytotoxicity: ≥ 100 µM
Mtb AccD6; read-out: IC50
  IC50: 324 nM
S. cerevisiae
  concentrations at which not toxic, s. cerevisiae cytotoxicity: ≥ 100 µM
Mtb strain mc^2-7000; [2]
  MIC: 12 µM (≈ 3.64 µg/mL)

## CC(C(=O)N1CCN(C)CC1)c1ccc(Oc2nc3ccc(Cl)cc3s2)cc1 (centres unmarked) [NZ-366, 2-{4-[(6-chloro-1,3-benzothiazol-2-yl)oxy]phenyl}-1-(4-methylpiperazin-1-yl)propan-1-one]
Human fibroblast
  concentrations at which not toxic, human fibroblast cytotoxicity: 25 to 50 µM
Mtb AccD6; read-out: IC50
  IC50: 4900 nM
S. cerevisiae
  concentrations at which not toxic, s. cerevisiae cytotoxicity: 25 to 50 µM
Mtb strain mc^2-7000; [2]
  MIC: 0.56 µM (≈ 0.233 µg/mL)

## COC(=O)Cc1ccc(Oc2nc3ccc(F)cc3s2)cc1 [NZ-294, methyl 2-{4-[(6-fluoro-1,3-benzothiazol-2-yl)oxy]phenyl}acetate]
Human fibroblast
  concentrations at which not toxic, human fibroblast cytotoxicity: ≥ 100 µM
Mtb AccD6; read-out: IC50
  IC50: 12500 nM
S. cerevisiae
  concentrations at which not toxic, s. cerevisiae cytotoxicity: ≥ 100 µM
Mtb strain mc^2-7000; [2]
  MIC: 3 µM

## CC(C)NC(=O)C(C)c1ccc(Oc2nc3ccc(Cl)cc3s2)cc1 (centres unmarked) [NZ-327, 2-{4-[(6-chloro-1,3-benzothiazol-2-yl)oxy]phenyl}-N-(propan-2-yl)propanamide]
Human fibroblast
  concentrations at which not toxic, human fibroblast cytotoxicity: ≥ 100 µM
Mtb AccD6; read-out: IC50
  IC50: 300 nM
S. cerevisiae
  concentrations at which not toxic, s. cerevisiae cytotoxicity: ≥ 100 µM
Mtb strain mc^2-7000; [2]
  MIC: 12 µM (≈ 4.5 µg/mL)
